Data published in US20130165734A1, “TIME-DOMAIN TRANSDUCTION SIGNALS AND METHODS OF THEIR PRODUCTION AND USE” (Nativis, Inc., priority 2009, published 2013).

Columns and labels:
[1] = observation of side effects in treated tumor-bearing animals; type: in vivo, mice; details: animals treated with taxol; preliminary observations
Excerpt: Another potential advantage of signal therapy over the conventional drug therapy is the potential for reduced side effects.

[2] = test system: tubulin; test: electron microscopy of tubulin assay samples; type: biochemical; details: 10 minutes exposure to 4 μM taxol
Excerpt: The assay samples from above were examined by electron microscopy to confirm that the nature of the microtubule polymers formed in the assay, either by the addition of taxol or the taxol-derived time-domain signal. FIGS. 10A-10F are photo electron micrographs, taken at 21,000× and 52,000× magnification, of a tubulin suspension for untreated control (FIGS. 10A and 10B), cremaphore alone, FIGS. 10C, 10D), and the tubulin suspension exposed to the magnetic field of a white-noise signal. Each sample was allowed to incubate in the system cell for 10 minutes under the conditions described, then placed on ice and immediately after cooling, placed on an EM grid and fixed for with stain. No evidence of significant tubulin formation is observed in any of these samples.
FIGS. 12A-12D show the morphology of the tubulin assay samples after 10 minutes exposure to 4 μM taxol, where the samples were cooled after 10 minutes and prepared for EM as above.
FIGS. 13A-13D show the morphology of the tubulin assay samples after 10 minutes exposure to the above M2(3) taxol-derived time-domain signal. 4 μM taxol, where the samples were cooled after 10 minutes and prepared for EM as above.

[3] = test system: U87 glioblastoma cells; test: intracranial U87 glioblastoma tumor study in mice; type: in vivo; details: tumor-bearing animals treated with taxol compound over the same 23 day period
[4] = test system: tubulin; test: in vitro tubulin polymerization (aggregation) assay, absorbance at 340 nm; type: biochemical; details: 4 μM taxol, tubulin 1.5 mg/ml in GPEM buffer, first ten minutes
Description: The M2(3) and a number of other high-score signals were tested for their ability to stabilize tubulin polymerization, employing the transduction system described above with reference to FIG. 7A. […] This assay has been described, for example, in Shelanski, M. L., Gaskin, F. and Cantor, C. R. (1973). Microtubule assembly in the absence of added nucleotides. Proc. Natl. Acad. Sci. U.S.A. 70, 765-768; and Lee, J. C. and Timasheff, S. N. (1977). In vitro reconstitution of calf brain microtubules: effects of solution variable. Biochemistry, 16, 1754-1762.
The M2(3) and a number of other high-score taxol signals were tested for their ability to stabilize tubulin polymerization. […] Change in optical absorption at 340 nm was measured continuously for each sample, and the OD340 data was used to calculate a rate of tubulin polymerization (dA/minute at 340 nm) at each one minute interval during the transduction study.
The results of the study, expressed as rate or tubulin polymerization over the first ten minutes of the study, are shown in FIGS. 9A and 9B.

CC(=O)O[C@H]1C(=O)[C@@]2(C)[C@H]([C@H](OC(=O)c3ccccc3)[C@]3(O)C[C@H](OC(=O)[C@H](O)[C@@H](NC(=O)c4ccccc4)c4ccccc4)C(C)=C1C3(C)C)[C@]1(OC(C)=O)CO[C@@H]1C[C@@H]2O [taxol, taxol (paclitaxel)]
side effects (activity, behavior, appetite) [1]: showed the expected signs of lethargy and loss of appetite | morphology of tubulin assay samples (EM) [2]: A number of well-developed microtubular structures, including multi-lamellar structures are seen | tumor volume result compared with signal treatment [3]: A similar result was seen | increase in absorbance (tubulin polymerization) over the tubulin control [4]: increased more than twofold
